This passage reports logD results from the SangsterLogP compilation.

Broadly, the logD is lipophilicity at a set pH, counting ionised and neutral species. A higher logD goes with higher lipophilicity.

Molecules are shown by their SMILES.

The nature of this series: method code SF-HPLC, from DOI: 10.1002/(sici)1521-3838(199911)18:5<482::aid-qsar482>3.0.co;2-r. The conditions noted are these: pH 6.4.
The compound `Cc1[nH]c2ccccc2c1Cc1nnc(Nc2ccccc2)s1` had a logD of 3.11.

The compound `O=[N+]([O-])c1ccc2c(ccn2Cc2n[nH]c(=S)n2-c2ccccc2)c1` returned a log distribution coefficient (logD) of 2.65.

In the case of `S=c1[nH]nc(Cn2ccc3cc(Br)ccc32)n1-c1cccc2ccccc12`, the logD came out at 3.88.

For the compound `Cc1[nH]c2ccccc2c1Cc1n[nH]c(=S)n1-c1ccccc1`, the logD was 2.55.

The compound `S=c1[nH]nc(Cn2ccc3ccccc32)n1-c1ccccc1` came in with a logD of 2.68. The logD values of the last two compounds are within 0.2 log units of each other.

`c1ccc2c(Nc3nnc(Cn4ccc5ccccc54)s3)cccc2c1` showed a logD of 4.54.

On to `Cc1ccc(Nc2nnc(Cn3ccc4ccccc43)s2)cc1`, for which the logD turned out to be 3.99.

With `Cc1ccc(-n2c(Cc3c(C)[nH]c4ccccc34)n[nH]c2=S)cc1`, the logD is 3.

`Cc1ccc(-n2c(Cn3ccc4cc([N+](=O)[O-])ccc43)n[nH]c2=S)cc1` had a logD of 3.17.

Compound `Cc1ccc(-n2c(Cn3ccc4ccccc43)n[nH]c2=S)cc1` returned a logD of 3.2.
